As usually defined, the IC50 is the concentration needed to halve the response being measured. Low readings indicate higher potency, high ones lower potency.

These results are taken from US9296757B2, “Substituted benzothienopyrimidines” (BAYER PHARMA AKTIENGESELLSCHAFT, priority 2012, dated 2016).

Chain of human full-length MKNK1 (Q9BUB5 other isoform, or with tags, fused parts or gaps T344D): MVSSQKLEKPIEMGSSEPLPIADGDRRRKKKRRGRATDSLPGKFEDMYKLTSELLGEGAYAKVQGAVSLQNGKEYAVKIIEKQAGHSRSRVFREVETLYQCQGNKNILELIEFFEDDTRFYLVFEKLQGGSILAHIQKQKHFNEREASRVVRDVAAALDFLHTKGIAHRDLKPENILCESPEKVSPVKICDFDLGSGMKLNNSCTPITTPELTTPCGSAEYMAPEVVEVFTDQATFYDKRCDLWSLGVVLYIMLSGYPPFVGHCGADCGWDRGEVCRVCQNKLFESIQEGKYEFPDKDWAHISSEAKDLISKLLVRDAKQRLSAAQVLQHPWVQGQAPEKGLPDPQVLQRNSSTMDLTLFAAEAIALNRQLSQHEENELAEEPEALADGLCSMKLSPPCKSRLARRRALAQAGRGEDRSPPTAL

This assay addresses human full-length MKNK1 (Homo sapiens (Human), UniProt Q9BUB5, T344D). Put plainly: MKNK1 kinase high ATP assay (TR-FRET). It counts as biochemical. The following applies: high ATP (2 mM final), 15 min preincubation with enzyme. The protocol:
MKNK1-inhibitory activity at high ATP of compounds of the present invention after their preincubation with MKNK1 was quantified employing the TR-FRET-based MKNK1 high ATP assay as described in the following paragraphs.
A recombinant fusion protein of Glutathione-S-Transferase (GST, N-terminally) and human full-length MKNK1 (amino acids 1-424 and T344D of accession number BAA 19885.1), expressed in insect cells using baculovirus expression system and purified via glutathione sepharose affinity chromatography, was purchased from Carna Biosciences (product no 02-145) and used as enzyme. As substrate for the kinase reaction the biotinylated peptide biotin-Ahx-IKKRKLTRRKSLKG (C-terminus in amide form) was used, which can be purchased e.g. from the company Biosyntan (Berlin-Buch, Germany).
For the assay 50 nL of a 100 fold concentrated solution of the test compound in DMSO was pipetted into a black low volume 384 well microtiter plate (Greiner Bio-One, Frickenhausen, Germany), 2 μL of a solution of MKNK1 in aqueous assay buffer [50 mM HEPES pH 7.5, 5 mM MgCl2, 1.0 mM dithiothreitol, 0.005% (v/v) Nonidet-P40 (Sigma)] was added and the mixture was incubated for 15 min at 22° C. to allow pre-binding of the test compounds to the enzyme before the start of the kinase reaction. Then the kinase reaction was started by the addition of 3 μL of a solution of adenosine-tri-phosphate (ATP, 3.3 mM=>final conc. in the 5 μL assay volume is 2 mM) and substrate (0.1 μM=>final conc. in the 5 μL assay volume is 0.06 μM) in assay buffer and the resulting mixture was incubated for a reaction time of 30 min at 22° C. The concentration of MKNK1 was adjusted depending of the activity of the enzyme lot and was chosen appropriate to have the assay in the linear range, typical concentrations were in the range of 0.003 μg/mL. The reaction was stopped by the addition of 5 μL of a solution of TR-FRET detection reagents (5 nM streptavidine-XL665 [Cisbio Bioassays, Codolet, France] and 1 nM anti-ribosomal protein S6 (pSer236)-antibody from Invitrogen [#44921G] and 1 nM LANCE EU-W1024 labeled ProteinG [Perkin-Elmer, product no. AD0071]) in an aqueous EDTA-solution (100 mM EDTA, 0.1% (w/v) bovine serum albumin in 50 mM HEPES pH 7.5).
The resulting mixture was incubated for 1 h at 22° C. to allow the formation of complex between the phosphorylated biotinylated peptide and the detection reagents. Subsequently the amount of phosphorylated substrate was evaluated by measurement of the resonance energy transfer from the Eu-chelate to the streptavidine-XL. Therefore, the fluorescence emissions at 620 nm and 665 nm after excitation at 350 nm were measured in a TR-FRET reader, e.g. a Rubystar (BMG Labtechnologies, Offenburg, Germany) or a Viewlux (Perkin-Elmer). The ratio of the emissions at 665 nm and at […] was taken as the measure for the amount of phosphorylated substrate. The data were normalised (enzyme reaction without inhibitor=0% inhibition, all other assay components but no enzyme=100% inhibition).
With `NCC1CCc2c(sc3ncnc(Nc4ccc5[nH]c(=O)sc5c4)c23)C1` (racemic) [Example 20, (RS)-6-{[7-(Aminomethyl)-5,6,7,8-tetrahydro[1]benzothieno[2,3-d]pyrimidin-4-yl]amino}-1,3-benzothiazol-2(3H)-one], the midpoint of inhibition, the IC50, lay at 103 nM.
The value for `CC(C)C(=O)NCC1CCc2c(sc3ncnc(Nc4ccc5[nH]c(=O)sc5c4)c23)C1` (racemic) [Example 21, (RS)-2-Methyl-N-({4-[(2-oxo-2,3-dihydro-1,3-benzothiazol-6-yl)amino]-5,6,7,8-tetrahydro[1]benzothieno[2,3-d]pyrimidin-7-yl}methyl)propanamide] was 37 nM; that for `CC(C)NC(=O)NCC1CCc2c(sc3ncnc(Nc4ccc5[nH]c(=O)sc5c4)c23)C1` (racemic) [Example 22, (RS)-1-({4-[(2-Oxo-2,3-dihydro-1,3-benzothiazol-6-yl)amino]-5,6,7,8-tetrahydro[1]benzothieno[2,3-d]pyrimidin-7-yl}methyl)-3-propan-2-ylurea] was 59 nM; that for `CC(C)OC(=O)NCC1CCc2c(sc3ncnc(Nc4ccc5[nH]c(=O)sc5c4)c23)C1` (racemic) [Example 24, (RS)-Propan-2-yl ({4-[(2-oxo-2,3-dihydro-1,3-benzothiazol-6-yl)amino]-5,6,7,8-tetrahydro[1]benzothieno[2,3-d]pyrimidin-7-yl}methyl)carbamate] was 62 nM.
`CC(C)(O)C(=O)NCC1CCc2c(sc3ncnc(Nc4ccc5[nH]c(=O)sc5c4)c23)C1` (racemic) [Example 25, (RS)-2-Hydroxy-2-methyl-N-({4-[(2-oxo-2,3-dihydro-1,3-benzothiazol-6-yl)amino]-5,6,7,8-tetrahydro[1]benzothieno[2,3-d]pyrimidin-7-yl}methyl)propanamide] displayed an IC50 of 42 nM.
`CC(O)C(=O)NCC1CCc2c(sc3ncnc(Nc4ccc5[nH]c(=O)sc5c4)c23)C1` (racemic) [Example 26, (2RS)-2-Hydroxy-N-({(7RS)-4-[(2-oxo-2,3-dihydro-1,3-benzothiazol-6-yl)amino]-5,6,7,8-tetrahydro[1]benzothieno[2,3-d]pyrimidin-7-yl}methyl)propanamide]: the IC50 stood at 84 nM.
Turning to `CC(C)S(=O)(=O)NCC1CCc2c(sc3ncnc(Nc4ccc5[nH]c(=O)sc5c4)c23)C1` (racemic) [Example 28, (RS)—N-({4-[(2-Oxo-2,3-dihydro-1,3-benzothiazol-6-yl)amino]-5,6,7,8-tetrahydro[1]benzothieno[2,3-d]pyrimidin-7-yl}methyl)propane-2-sulfonamide], half-maximal inhibition (IC50) required 139 nM.
As for `CN1CCN(C(=O)C2CCc3c(sc4ncnc(Nc5ccc6[nH]c(=O)sc6c5)c34)C2)CC1` (racemic) [Example 29, (RS)-6-({7-[(4-Methylpiperazin-1-yl)carbonyl]-5,6,7,8-tetrahydro[1]benzothieno[2,3-d]pyrimidin-4-yl}amino)-1,3-benzothiazol-2(3H)-one], the figure is 48 nM; as for `CCOC(=O)C1CCc2c(sc3ncnc(Nc4cc5sc(=O)[nH]c5cc4OC)c23)C1` (racemic) [Example 30, (RS)-Ethyl 4-[(5-methoxy-2-oxo-2,3-dihydro-1,3-benzothiazol-6-yl)amino]-5,6,7,8-tetrahydro[1]benzothieno[2,3-d]pyrimidine-7-carboxylate], 15 nM.
`COc1cc2[nH]c(=O)sc2cc1Nc1ncnc2sc3c(c12)CCC(C(=O)NC(C)C)C3` (racemic) [Example 31] showed an IC50 of 4 nM.
The value for `CCCCN(CC#N)C(=O)C1CCc2c(sc3ncnc(Nc4ccc5[nH]c(=O)sc5c4)c23)C1` (racemic) [Example 34, (RS)-N-butyl-N-(cyanonmethyl)-4-[(2-oxo-2,3-dihydro-1,3-benzothiazol-6-yl)amino]-5,6,7,8-tetrahydro[1]benzothieno[2,3-d]pyrimidine-7-carboxamide] was 20 nM; that for `CN(C)CCN(C)C(=O)C1CCc2c(sc3ncnc(Nc4ccc5[nH]c(=O)sc5c4)c23)C1` (racemic) [Example 35, (RS)-N-[2-(dimethylamino)ethyl]-N-methyl-4-[(2-oxo-2,3-dihydro-1,3-benzothiazol-6-yl)amino]-5,6,7,8-tetrahydro[1]benzothieno[2,3-d]pyrimidine-7-carboxamide] was 36 nM; that for `CN(C)CCN(Cc1ccccc1)C(=O)C1CCc2c(sc3ncnc(Nc4ccc5[nH]c(=O)sc5c4)c23)C1` (racemic) [Example 36, (RS)-N-benzyl-N-[2-(dimethylamino)ethyl]-4-[(2-oxo-2,3-dihydro-1,3-benzothiazol-6-yl)amino]-5,6,7,8-tetrahydro[1]benzothieno[2,3-d]pyrimidine-7-carboxamide] was 9 nM.
As for `CN1CCN(C(=O)C2CCc3c(sc4ncnc(Nc5ccc6[nH]c(=O)sc6c5)c34)C2)CC1` (racemic) [Example 37, (RS)-6-({7-[(4-methylpiperazin-1-yl)carbonyl]-5,6,7,8-tetrahydro[1]benzothieno[2,3-d]pyrimidin-4-yl}amino)-1,3-benzothiazol-2(3H)-one], the IC50 turned out to be 22 nM.
In the case of `O=C(C1CCc2c(sc3ncnc(Nc4ccc5[nH]c(=O)sc5c4)c23)C1)N1CCN(c2ccccn2)CC1` (racemic) [Example 40, (RS)-6-[(7-{[4-(pyridin-2-yl)piperazin-1-yl]carbonyl}-5,6,7,8-tetrahydro[1]benzothieno[2,3-d]pyrimidin-4-yl)amino]-1,3-benzothiazol-2(3H)-one], inhibition was half-maximal at 65 nM (IC50).
`CCCCN(C)C(=O)C1CCc2c(sc3ncnc(Nc4ccc5[nH]c(=O)sc5c4)c23)C1` (racemic) [Example 41, (RS)-N-butyl-N-methyl-4-[(2-oxo-2,3-dihydro-1,3-benzothiazol-6-yl)amino]-5,6,7,8-tetrahydro[1]benzothieno[2,3-d]pyrimidine-7-carboxamide] had an IC50 of 21 nM.
The value for `COc1ccc(N(C)C(=O)C2CCc3c(sc4ncnc(Nc5ccc6[nH]c(=O)sc6c5)c34)C2)cc1` (racemic) [Example 42, (RS)-N-(4-methoxyphenyl)-N-methyl-4-[(2-oxo-2,3-dihydro-1,3-benzothiazol-6-yl)amino]-5,6,7,8-tetrahydro[1]benzothieno[2,3-d]pyrimidine-7-carboxamide] was 47 nM; that for `O=C(CN1CCN(C(=O)C2CCc3c(sc4ncnc(Nc5ccc6[nH]c(=O)sc6c5)c34)C2)CC1)N1CCCC1` (racemic) [Example 43, (RS)-6-{[7-({4-[2-oxo-2-(pyrrolidin-1-yl)ethyl]piperazin-1-yl}carbonyl)-5,6,7,8-tetrahydro[1]benzothieno[2,3-d]pyrimidin-4-yl]amino}-1,3-benzothiazol-2(3H)-one] was 69 nM.
The compound `O=C(C1CCc2c(sc3ncnc(Nc4ccc5[nH]c(=O)sc5c4)c23)C1)N1CCN(Cc2ccc3c(c2)OCO3)CC1` (racemic) [Example 44, (RS)-6-[(7-{[4-(1,3-benzodioxol-5-ylmethyl)piperazin-1-yl]carbonyl}-5,6,7,8-tetrahydro[1]benzothieno[2,3-d]pyrimidin-4-yl)amino]-1,3-benzothiazol-2(3H)-one] returned an IC50 of 67 nM.
As for `O=C(C1CCc2c(sc3ncnc(Nc4ccc5[nH]c(=O)sc5c4)c23)C1)N1CCC1` (racemic) [Example 45, (RS)-6-{[7-(azetidin-1-ylcarbonyl)-5,6,7,8-tetrahydro[1]benzothieno[2,3-d]pyrimidin-4-yl]amino}-1,3-benzothiazol-2(3H)-one], the figure is 70 nM; as for `O=C(C1CCc2c(sc3ncnc(Nc4ccc5[nH]c(=O)sc5c4)c23)C1)N1CCCC1CO` (racemic) [Example 46, 6-{[(7RS)-7-{[(2RS)-2-(hydroxymethyl)pyrrolidin-1-yl]carbonyl}-5,6,7,8-tetrahydro[1]benzothieno[2,3-d]pyrimidin-4-yl]amino}-1,3-benzothiazol-2(3H)-one], 35 nM; as for `CC(=O)N1CCN(C(=O)C2CCc3c(sc4ncnc(Nc5ccc6[nH]c(=O)sc6c5)c34)C2)CC1` (racemic) [Example 47, (RS)-6-({7-[(4-acetylpiperazin-1-yl)carbonyl]-5,6,7,8-tetrahydro[1]benzothieno[2,3-d]pyrimidin-4-yl}amino)-1,3-benzothiazol-2(3H)-one], 47 nM.
